# According to patent US5118697A, “Cyclic beta-ketoamide ACAT inhibitors” (Warner-Lambert Company, priority 1991, dated 1992):
# Target: T1, acyl-CoA: cholesterol acyltransferase (ACAT) (Oryctolagus cuniculus, UniProt G1SFD9)
# T1 construct: tissue preparation containing rabbit intestinal microsomes; from tissue; host or cells: rabbit intestinal microsomes
# T1 sequence (G1SFD9 1-524): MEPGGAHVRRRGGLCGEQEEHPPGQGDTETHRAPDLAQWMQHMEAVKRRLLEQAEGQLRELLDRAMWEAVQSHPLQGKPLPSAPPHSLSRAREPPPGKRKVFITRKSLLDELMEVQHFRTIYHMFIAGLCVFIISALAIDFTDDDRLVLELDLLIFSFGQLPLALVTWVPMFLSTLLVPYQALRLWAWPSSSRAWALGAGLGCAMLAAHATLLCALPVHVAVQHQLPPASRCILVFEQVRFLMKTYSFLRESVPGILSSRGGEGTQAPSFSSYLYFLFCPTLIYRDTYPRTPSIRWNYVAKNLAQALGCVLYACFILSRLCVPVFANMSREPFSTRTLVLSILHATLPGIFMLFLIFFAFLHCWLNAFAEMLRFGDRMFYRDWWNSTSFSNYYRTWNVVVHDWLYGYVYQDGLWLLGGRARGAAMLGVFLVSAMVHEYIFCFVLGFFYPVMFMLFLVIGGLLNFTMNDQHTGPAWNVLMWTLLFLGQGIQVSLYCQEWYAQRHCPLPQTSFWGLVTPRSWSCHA
# Assay: in vitro ACAT inhibition test: radiolabeled cholesterol oleate formed from radiolabeled oleic acid in rabbit intestinal microsomes
# Format: biochemical
# From the text: As shown by the data presented below in Table 1, the compounds of the present invention are potent inhibitors of the enzyme acyl-CoA: cholesterol acyltransferase (ACAT), and are thus effective in inhibiting the esterification and transport of cholesterol across the intestinal cell wall. The compounds of the present invention are thus useful in pharmaceutical formulations for the treatment of hypercholesterolemia or atherosclerosis.
# The ability of representative compounds of the present invention to inhibit ACAT was measured using an in vitro test more fully described in F. J. Field and R. G. Salone, Biochemica et Biophysica 712:557-570 (1982). The test assesses the ability of a test compound to inhibit the acylation of cholesterol by oleic acid by measuring the amount of radiolabeled cholesterol oleate formed from radiolabeled oleic acid in a tissue preparation containing rabbit intestinal microsomes.
row,Structure (SMILES),IC50
1,CC(C)c1cccc(C(C)C)c1NC(=O)C1CCC(c2ccccc2)(c2ccccn2)C1=O (stereo not drawn) [Example 1],> 1000 nM
2,"CC(C)c1cccc(C(C)C)c1NC(=O)C1CCCC(c2ccccc2)(c2ccccn2)C1=O (stereo not drawn) [Example 2, N-[2,6 bis(1-methylethyl)phenyl]-2-oxo-3-phenyl-3-(2-pyridinyl)cyclohexanecarboxamide]",1000 nM
3,"CC(C)c1cccc(C(C)C)c1NC(=O)C1CCCC(Cc2c(CCN(C)C)n(C)c3ccccc23)(c2ccccc2)C1=O (stereo not drawn) [Example 3, N-[2,6 bis(1-methylethyl)phenyl-3-[2-[2-(dimethylamino)ethyl]-1-methyl-1H-indol-3-yl]methyl]-2-oxo-3-phenylcyclohexanecarboxamide]",> 1000 nM
4,"CC(C)c1cccc(C(C)C)c1NC(=O)C1CCCC(Cc2ccccn2)(c2ccccc2)C1=O (stereo not drawn) [Example 4, N-[2,6-bis(1 methylethyl)phenyl]-2-oxo-3-phenyl-3-(2-pyridinylmethyl)cyclohexanecarboxamide]",259 nM
5,"CC(C)c1cccc(C(C)C)c1NC(=O)C1CCCC(Cc2ccccn2)(Cc2ccccn2)C1=O (stereo not drawn) [Example 5, N-[2,6-bis(1-methylethyl)phenyl]-2-oxo-3,3-bis(2-pyridinylmethyl)cyclohexanecarboxamide]",940 nM
6,"CC(C)c1cccc(C(C)C)c1NC(=O)C1CCCC(CCCCCOc2ccccc2)(c2ccccc2)C1=O (stereo not drawn) [Example 6, N-[2,6-bis (1-methylethyl)phenyl]-2-oxo-3-(5-phenoxypentyl)-3-phenylcyclohexanecarboxamide]",72 nM
